Source: US20240000872A1, “NOVEL BACTERIOPHAGE THAT LYSES ACINETOBACTER GENUS BACTERIA HAVING RESISTANCE TO ANTIBIOTICS” (priority 2020, published 2024)

Test system: Acinetobacter baumannii strains
Experiment: Antibiotic susceptibility test (CLSI disk diffusion test method, read per CLSI 2016)
Type: cell-based
Experimental: (§1) Strain identification was performed using a kit such as AT 32 GN system (bioMérieux, Marcy l'Etoile, France). […] In Table 2 below, S, I, and R are the results obtained by evaluating susceptibility to the antibacterial agents, in which ‘S’ means susceptible, ‘I’ means intermediate, and ‘R’ means resistant.
as §1, with “as ATB” for “as AT”, “system (bioMédrieux,” for “system (bioMérieux,”, “Table 6” for “Table 2”
as §1, with “as ATB” for “as AT”, “Table 10” for “Table 2”, “susceptible, T” for “susceptible, ‘I’”

SMILES: C[C@H]1COc2c(N3CCN(C)CC3)c(F)cc3c(=O)c(C(=O)O)cn1c23 [Levofloxacin, levofloxacin]
- antibiotic susceptibility class (host strain YMC14/01/C29): R
- antibiotic susceptibility class (host strain YMC14/01/IP122): I
- antibiotic susceptibility class (host strain YMC14/01/L8): R
- antibiotic susceptibility class (host strain YMC14/01/P31): R
- antibiotic susceptibility class (host strain YMC14/01/P117): I
- antibiotic susceptibility class (host strain YMC14/01/P224): R
- antibiotic susceptibility class (host strain YMC14/01/P727): R
- antibiotic susceptibility class (host strain YMC14/01/P728): R
- antibiotic susceptibility class (host strain YMC14/01/R130): R
- antibiotic susceptibility class (host strain YMC14/01/R160): R
- antibiotic susceptibility class (host strain YMC14/01/R198): R
- antibiotic susceptibility class (host strain YMC14/01/R257): R
- antibiotic susceptibility class (host strain YMC14/01/R270): R
- antibiotic susceptibility class (host strain YMC14/01/R324): R
- antibiotic susceptibility class (host strain YMC14/01/R443): R
- antibiotic susceptibility class (host strain YMC14/01/R451): R
- antibiotic susceptibility class (host strain YMC14/01/R560): R
- antibiotic susceptibility class (host strain YMC14/01/R617): R
- antibiotic susceptibility class (host strain YMC14/01/R671): R
- antibiotic susceptibility class (host strain YMC14/01/R732): R
- antibiotic susceptibility class (host strain YMC14/01/R767): R
- antibiotic susceptibility class (host strain YMC14/01/R904): R
- antibiotic susceptibility class (host strain YMC14/01/R905): R
- antibiotic susceptibility class (host strain YMC14/01/R921): R
- antibiotic susceptibility class (host strain YMC14/01/R941): R
- antibiotic susceptibility class (host strain YMC14/01/R958): R
- antibiotic susceptibility class (host strain YMC14/01/R1006): R
- antibiotic susceptibility class (host strain YMC14/01/R1199): R
- antibiotic susceptibility class (host strain YMC14/01/R1659): R
- antibiotic susceptibility class (host strain YMC14/01/R1722): R
- antibiotic susceptibility class (host strain YMC14/01/R1752): R
- antibiotic susceptibility class (host strain YMC14/01/R2429): R
- antibiotic susceptibility class (host strain YMC14/01/R2572): R
- antibiotic susceptibility class (host strain YMC14/01/R2855): R
- antibiotic susceptibility class (host strain YMC14/01/R2945): R
- antibiotic susceptibility class (host strain YMC14/01/R3007): R
- antibiotic susceptibility class (host strain YMC14/01/R3129): R
- antibiotic susceptibility class (host strain YMC14/01/R3317): R
- antibiotic susceptibility class (host strain YMC14/01/R3474): I
- antibiotic susceptibility class (host strain YMC14/01/R3574): R
- antibiotic susceptibility class (host strain YMC14/01/U313): R
- antibiotic susceptibility class (host strain YMC14/01/U318): R
- antibiotic susceptibility class (host strain YMC14/02/L18): R
- antibiotic susceptibility class (host strain YMC14/02/P47): R
- antibiotic susceptibility class (host strain YMC14/02/R1860): R
- antibiotic susceptibility class (host strain YMC14/02/R2417): R
- antibiotic susceptibility class (host strain YMC14/02/R2599): R
- antibiotic susceptibility class (host strain YMC14/02/R2668): R
- antibiotic susceptibility class (host strain YMC14/02/R2758): R
- antibiotic susceptibility class (host strain YMC14/02/R2781): R
- antibiotic susceptibility class (host strain YMC14/02/R3106): R
- antibiotic susceptibility class (host strain YMC14/02/R3419): R
- antibiotic susceptibility class (host strain YMC14/02/U1607): R
- antibiotic susceptibility class (host strain YMC14/03/L9): R
- antibiotic susceptibility class (host strain YMC14/03/P471): R
- antibiotic susceptibility class (host strain YMC14/03/R122): R
- antibiotic susceptibility class (host strain YMC14/03/R217): R
- antibiotic susceptibility class (host strain YMC14/03/R380): R
- antibiotic susceptibility class (host strain YMC14/03/R618): R
- antibiotic susceptibility class (host strain YMC14/03/R2144): R
- antibiotic susceptibility class (host strain YMC14/03/U4616): R
- antibiotic susceptibility class (host strain YMC14/04/R1078): R
- antibiotic susceptibility class (host strain YMC14/04/R1080): R
- antibiotic susceptibility S/I/R (host strain YMC14/06/R2359): R
- susceptibility category (S/I/R) (host strain YMC14/06/R2359): R
- antibiotic susceptibility S/I/R (host strain YMC14/08/R1169): R
- susceptibility category (S/I/R) (host strain YMC14/08/R1169): R
- antibiotic susceptibility S/I/R (host strain YMC14/08/T90): R
- susceptibility category (S/I/R) (host strain YMC14/08/T90): R
- antibiotic susceptibility S/I/R (host strain YMC15/02/R436): R
- susceptibility category (S/I/R) (host strain YMC15/02/R436): R
- antibiotic susceptibility S/I/R (host strain YMC15/02/T28): R
- susceptibility category (S/I/R) (host strain YMC15/02/T28): R
- antibiotic susceptibility S/I/R (host strain YMC15/03/R1604): R
- susceptibility category (S/I/R) (host strain YMC15/03/R1604): R
- antibiotic susceptibility S/I/R (host strain YMC15/09/R1869): R
- susceptibility category (S/I/R) (host strain YMC15/09/R1869): R
- antibiotic susceptibility S/I/R (host strain YMC16/01/P11): R
- susceptibility category (S/I/R) (host strain YMC16/01/P11): R
- antibiotic susceptibility S/I/R (host strain YMC16/01/R123): R
- susceptibility category (S/I/R) (host strain YMC16/01/R123): R
- antibiotic susceptibility S/I/R (host strain YMC16/01/R198): R
- susceptibility category (S/I/R) (host strain YMC16/01/R198): R
- antibiotic susceptibility S/I/R (host strain YMC16/01/R353): R
- susceptibility category (S/I/R) (host strain YMC16/01/R353): R
- antibiotic susceptibility S/I/R (host strain YMC16/01/R380): R
- susceptibility category (S/I/R) (host strain YMC16/01/R380): R
- antibiotic susceptibility S/I/R (host strain YMC16/01/R397): R
- susceptibility category (S/I/R) (host strain YMC16/01/R397): R
- antibiotic susceptibility S/I/R (host strain YMC16/01/R405): R
- susceptibility category (S/I/R) (host strain YMC16/01/R405): R
- antibiotic susceptibility S/I/R (host strain YMC16/03/R4461): R
- susceptibility category (S/I/R) (host strain YMC16/03/R4461): R
- antibiotic susceptibility S/I/R (host strain YMC16/05/R2210): R
- susceptibility category (S/I/R) (host strain YMC16/05/R2210): R
- antibiotic susceptibility S/I/R (host strain YMC16/07/R2512): R
- susceptibility category (S/I/R) (host strain YMC16/07/R2512): R
- antibiotic susceptibility S/I/R (host strain YMC16/09/R2471): R
- susceptibility category (S/I/R) (host strain YMC16/09/R2471): R
- antibiotic susceptibility S/I/R (host strain YMC16/10/R2537): R
- susceptibility category (S/I/R) (host strain YMC16/10/R2537): R
- antibiotic susceptibility S/I/R (host strain YMC16/12/B11422): R
- susceptibility category (S/I/R) (host strain YMC16/12/B11422): R
- antibiotic susceptibility S/I/R (host strain YMC16/12/B11449): R
- susceptibility category (S/I/R) (host strain YMC16/12/B11449): R
- antibiotic susceptibility S/I/R (host strain YMC16/12/B13325): R
- susceptibility category (S/I/R) (host strain YMC16/12/B13325): R
- antibiotic susceptibility S/I/R (host strain YMC16/12/P503): R
- susceptibility category (S/I/R) (host strain YMC16/12/P503): R
- antibiotic susceptibility S/I/R (host strain YMC16/12/R4637): R
- susceptibility category (S/I/R) (host strain YMC16/12/R4637): R
- antibiotic susceptibility S/I/R (host strain YMC17/01/B8053): R
- susceptibility category (S/I/R) (host strain YMC17/01/B8053): R
- antibiotic susceptibility S/I/R (host strain YMC17/01/B10087): R
- susceptibility category (S/I/R) (host strain YMC17/01/B10087): R
- antibiotic susceptibility S/I/R (host strain YMC17/01/B12075): R
- susceptibility category (S/I/R) (host strain YMC17/01/B12075): R
- antibiotic susceptibility S/I/R (host strain YMC17/01/B13454): R
- susceptibility category (S/I/R) (host strain YMC17/01/B13454): R
- antibiotic susceptibility S/I/R (host strain YMC17/01/P518): R
- susceptibility category (S/I/R) (host strain YMC17/01/P518): R
- antibiotic susceptibility S/I/R (host strain YMC17/01/R2812): R
- susceptibility category (S/I/R) (host strain YMC17/01/R2812): R
- antibiotic susceptibility S/I/R (host strain YMC17/02/B14): R
- susceptibility category (S/I/R) (host strain YMC17/02/B14): R
- antibiotic susceptibility S/I/R (host strain YMC17/02/B87): R
- susceptibility category (S/I/R) (host strain YMC17/02/B87): R
- antibiotic susceptibility S/I/R (host strain YMC17/02/B721): R
- susceptibility category (S/I/R) (host strain YMC17/02/B721): R
- antibiotic susceptibility S/I/R (host strain YMC17/02/B4039): R
- susceptibility category (S/I/R) (host strain YMC17/02/B4039): R
- antibiotic susceptibility S/I/R (host strain YMC17/02/B4520): R
- susceptibility category (S/I/R) (host strain YMC17/02/B4520): R
- antibiotic susceptibility S/I/R (host strain YMC17/02/B4864): S
- susceptibility category (S/I/R) (host strain YMC17/02/B4864): S
- antibiotic susceptibility S/I/R (host strain YMC17/02/B8414): R
- susceptibility category (S/I/R) (host strain YMC17/02/B8414): R
- antibiotic susceptibility S/I/R (host strain YMC17/02/P523): R
- susceptibility category (S/I/R) (host strain YMC17/02/P523): R
- antibiotic susceptibility S/I/R (host strain YMC17/02/R541): R
- susceptibility category (S/I/R) (host strain YMC17/02/R541): R
- antibiotic susceptibility S/I/R (host strain YMC17/02/R2392): R
- susceptibility category (S/I/R) (host strain YMC17/02/R2392): R
- antibiotic susceptibility S/I/R (host strain YMC17/03/B4730): R
- susceptibility category (S/I/R) (host strain YMC17/03/B4730): R
- antibiotic susceptibility S/I/R (host strain YMC17/03/B5000): R
- susceptibility category (S/I/R) (host strain YMC17/03/B5000): R
- antibiotic susceptibility S/I/R (host strain YMC17/03/P971): R
- susceptibility category (S/I/R) (host strain YMC17/03/P971): R
- antibiotic susceptibility S/I/R (host strain YMC17/03/R348): R
- susceptibility category (S/I/R) (host strain YMC17/03/R348): R
- antibiotic susceptibility S/I/R (host strain YMC17/03/R585): R
- susceptibility category (S/I/R) (host strain YMC17/03/R585): R
- antibiotic susceptibility S/I/R (host strain YMC17/03/R1888): R
- susceptibility category (S/I/R) (host strain YMC17/03/R1888): R
- antibiotic susceptibility S/I/R (host strain YMC17/03/R3279): R
- susceptibility category (S/I/R) (host strain YMC17/03/R3279): R
- antibiotic susceptibility S/I/R (host strain YMC17/03/R4077): R
- susceptibility category (S/I/R) (host strain YMC17/03/R4077): R
- antibiotic susceptibility S/I/R (host strain YMC17/03/R4607): R
- susceptibility category (S/I/R) (host strain YMC17/03/R4607): R
- antibiotic susceptibility S/I/R (host strain YMC17/04/R488): R
- susceptibility category (S/I/R) (host strain YMC17/04/R488): R
- antibiotic susceptibility S/I/R (host strain YMC17/04/R640): R
- susceptibility category (S/I/R) (host strain YMC17/04/R640): R
- antibiotic susceptibility S/I/R (host strain YMC/17/05/R1095): R
- susceptibility category (S/I/R) (host strain YMC/17/05/R1095): R
